Tested on: melanoma cells
Assay: In vitro treatment of tumor cells in culture, flow cytometry (cell cycle analysis, cell death)
Assay type: cell-based
Details: melanoma cells treated in vitro
Description: Tumor cells (B16.F1, NIT-1, or MCF7) were thawed from liquid nitrogen. The tumor cells were transferred into a 15 milliliter (ml) conical tube using a sterile bulb pipette. Using a balance, the tubes were balanced with cells and spun in the centrifuge. The liquid was removed using the vacuum, leaving the pellet of cells. The cells were mixed using two mls of the RPMI. In a 24 well plate, 1 ml of RPMI was placed in each well. One ml of cells was placed into the first well and the second ml was missed into the second well, then one ml was transferred from the second well into the third. The process was repeated until one ml will remain for the last well (serial dilutions). After two to three days the cells were confluent enough to transfer from a well into a flask. After around 24 hours the treatments were added to the appropriate flasks (control, chloroquine, Avastin, both). After 48 hrs. the cells were stained using lysotracker and propidium idodide. The plate was run in the flow cytometer to check the growth arrest and the amount of lysosomic activity as well as the amount of cell death.

For “avastin: humanized monoclonal antibody against VEGF-A, trade name Avastin, Genentech/Roche”, the “growth arrest by cell cycle analysis” value was “growth arresting the melanoma cells in G0-G1 phase”.
